Data on eleven molecules can be found in patent EP0241395A2, “Sweeteners derived from n-phenylguanidinoacetic and n-phenylethananamidinacetic acids, and compositions containing such sweeteners” (UNIVERSITE CLAUDE BERNARD - LYON 1, priority 1986, dated 1987).

The subject of the experiment is groupe de huit goûteurs expérimentés. The experiment can be described thus: Sweetening power judged by a panel of eight experienced tasters against a sucrose reference solution. The note with it: weight basis; for Pouvoir édulcorant: Table II, relative to a 2 % sucrose solution; for pouvoir édulcorant, sur une base pondérale: approximate. The format is in vivo. From the text: Le pouvoir édulcorant des composés préparés dans les exemples suivants a été évalué par un groupe de huit goûteurs expérimentés. Pour cela, les composés, en solution aqueuse à des concentrations variables, sont comparés, sur le plan gustatif, à une solution témoin de saccharose à 2 % et dans certains cas à 5 % et 10 %, c'est-à-dire à des concentrations correspondant à celles utilisées lors d'un usage courant. Le pouvoir sucrant des édulcorants de synthèse varie en effet suivant la concentration de la solution de saccharose utilisée comme référence. Le pouvoir édulcorant du composé testé par rapport au saccharose correspond alors au rapport pondéral qui existe entre le composé et le saccharose à égale intensité édulcorante, c'est-à-dire quand les saveurs sucrées de la solution du composé testé et de la solution témoin de saccharose sont considérées, par une majorité de goûteurs, avoir la même intensité édulcorante.

Where [1] appears, read: by comparison with a 2 % sucrose solution.
The mark [2] stands for this setting: by comparison with a 5 % sucrose solution.
Setting [3] is: by comparison with a 10 % sucrose solution.

Each structure is given as a SMILES string.

`O=C(O)CNC(=Nc1ccc([N+](=O)[O-])cc1)NCC1CCCCC1` [Exemple 62, acide N-[N-cyclohexylméthylamino(4-nitrophénylimino)méthyl]-2-aminoéthanoïque] yielded a Pouvoir édulcorant of 8000. In addition, under setting [1], the “pouvoir édulcorant, sur une base pondérale” value was ~8 000 fois celui du saccharose. The “pouvoir édulcorant, sur une base pondérale” value under setting [2] is listed as ~7 500 fois celui du saccharose. Further, the “pouvoir édulcorant, sur une base pondérale” value under setting [3] is ~4 000 fois celui du saccharose.
For the molecule `N#Cc1ccc(N=C(NCC(=O)O)Nc2cccc3ccccc23)cc1` [Exemple 69, acide N-[N-1-naphtylamino(4-cyanophénylimino)méthyl)-2-aminoéthanoïque], the Pouvoir édulcorant was determined as 60000. Moreover, the “pouvoir édulcorant, sur une base pondérale” value under setting [1] is listed as ~60 000 fois celui du saccharose.
On to `C[C@@H](NC(=Nc1ccc(C#N)cc1)NC1CCCCCCC1)C(=O)O` [Exemple 87, acide (R)-N-[N-cyclooctylamino(4-cyanophénylimino)méthyl]-2-aminopropanoïque], for which the “Pouvoir édulcorant” value turned out to be 900. The “pouvoir édulcorant, sur une base pondérale” value under setting [1] was about 900 fois celui du saccharose.
Molecule `O=C(O)CNC(=Nc1ccc(Cl)cc1)NCC1CCCCC1` [Exemple 58, acide N-[N-cyclohexylméthylamino(4-chlorophénylimino)méthyl]-2-aminoéthanoïque] came in with a Pouvoir édulcorant of 3500. For the same molecule, the “pouvoir édulcorant, sur une base pondérale” value under setting [1] is given as ~3 500 fois celui du saccharose. Further, under setting [2], the “pouvoir édulcorant, sur une base pondérale” value is reported as ~2 700 fois celui du saccharose. The “pouvoir édulcorant, sur une base pondérale” value under setting [3] is ~1 500 fois celui du saccharose.
In turn, `N#Cc1ccc(N=C(NCC(=O)O)NCC23CC4CC(CC(C4)C2)C3)cc1` [Exemple 72, acide N-[N-(l-adamantylméthyl)amino(4-cyanophénylimino)méthyl]-2-aminoéthanoïque] returned a Pouvoir édulcorant of 23000. Besides, the “pouvoir édulcorant, sur une base pondérale” value under setting [1] is listed as ~23 000 fois celui du saccharose.
Molecule `N#Cc1ccc(N=C(NCC(=O)O)NCC2CCCCC2)cc1` [Exemple 59, acide N-[N-cyclohexylméthylamino(4-cyanophénylimino)méthyl]-2-aminoéthanoïque] returned a Pouvoir édulcorant of 35000. For the same molecule, under setting [1], the “pouvoir édulcorant, sur une base pondérale” value is ~35 000 fois celui du saccharose. Also, under setting [2], the “pouvoir édulcorant, sur une base pondérale” value is recorded as ~28 000 fois celui du saccharose. The “pouvoir édulcorant, sur une base pondérale” value under setting [3] is ~17 000 fois celui du saccharose.
The molecule `O=C(O)CNC(=Nc1cc(Cl)cc(Cl)c1)Nc1cc(Cl)cc(Cl)c1` [Exemple 81, acide N-[N-3,5-dichlorophénylamino (3,5-dichlorophénylimino)méthyl]-2-aminoéthanoïque] registered a Pouvoir édulcorant of 1000. Further, under setting [1], the “pouvoir édulcorant, sur une base pondérale” value is reported as ~1 000 fois celui du saccharose.
The molecule `N#Cc1ccc(NC(=NC2CCCCCCC2)NCC(=O)O)cc1` [Exemple 47, acide N-[N-cyclooctylamino-(4-cyanophénylimino)méthyl]-2-aminoéthanoïque] returned a Pouvoir édulcorant of 170000. In addition, the “pouvoir édulcorant, sur une base pondérale” value under setting [1] is given as ~170 000 fois celui du saccharose. Besides, the “pouvoir édulcorant, sur une base pondérale” value under setting [2] was ~130 000 fois celui du saccharose. Under setting [3], the “pouvoir édulcorant, sur une base pondérale” value is ~100 000 fois celui du saccharose.
Regarding `O=C(O)CN=C(NCC1CCCCC1)Nc1ccc(C(=O)O)cc1` [Exemple 61, acide N-[N-cyclohexylméthylamino(4-carboxyphénylimino)méthyl]-2-aminoéthanoïque], the “Pouvoir édulcorant” value worked out at 50. Also, the “pouvoir édulcorant, sur une base pondérale” value under setting [1] is reported as about 50 fois celui du saccharose.
On to `CC1(NC(=Nc2ccc(C#N)cc2)NCC(=O)O)CCCCC1` [Exemple 67], for which the “Pouvoir édulcorant” value is 100. Also, under setting [1], the “pouvoir édulcorant, sur une base pondérale” value is recorded as about 100 fois celui du saccharose.
`COC(=O)c1ccc(N=C(NCC(=O)O)N[C@@H](C)c2ccccc2)cc1` [Exemple 16, acide N-[N-(S)-α-méthylbenzylamino (4-méthoxycarbonylphénylimino)méthyl]-2-aminoéthanoïque]: the “Pouvoir édulcorant” value amounted to 700. Also, the “pouvoir édulcorant, sur une base pondérale” value under setting [1] is about 700 fois celui du saccharose.
